Assay results reported in ChEMBL document CHEMBL1201862, “PubChem BioAssay data set” (2004).
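These data come from cells grown in 96-well plates and exposed to compound for 48 hours at five concentrations. At the GI50, growth is halved.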 Calls of active or inactive are those of the source. No stated cut-off is given here; in the data, active = GI50 up to about 1.1 µM and inactive = higher.

Legend:
Assay in all cases: DTP human tumour cell line panel, 48 h
[1] = system: MDA-MB-435
[2] = system: NCI-H460
[3] = system: ACHN
[4] = system: 786-0
[5] = system: Malme-3M
[6] = system: PC-3
[7] = system: SF-539
[8] = system: NCI-H226
[9] = system: OVCAR-3
[10] = system: UACC-62
[11] = system: DU-145
[12] = system: M14
[13] = system: HCT-116
[14] = system: SR
[15] = system: SF-295
[16] = system: A498
[17] = system: SK-OV-3
[18] = system: NCI-H23
[19] = system: OVCAR-8
[20] = system: HOP-92
[21] = system: SN12C
[22] = system: IGROV-1
[23] = system: COLO 205
[24] = system: UACC-257
[25] = system: MCF7
[26] = system: SNB-19
[27] = system: U-251
[28] = system: MDA-N
[29] = system: HT-29
[30] = system: NCI/ADR-RES
[31] = system: HCT-15
[32] = system: SK-MEL-28
[33] = system: OVCAR-4
[34] = system: CAKI-1
[35] = system: HL-60
[36] = system: SW-620
[37] = system: EKVX
[38] = system: NCI-H522
[39] = system: BT-549
[40] = system: TK-10
[41] = system: HOP-62
[42] = system: T47D
[43] = system: HCC 2998
[44] = system: KM12
[45] = system: RXF 393
[46] = system: OVCAR-5
[47] = system: SF-268
[48] = system: MOLT-4
[49] = system: RPMI-8226
[50] = system: A549
[51] = system: SK-MEL-2
[52] = system: SK-MEL-5
[53] = system: K562
[54] = system: LOX IMVI
[55] = system: MDA-MB-231
[56] = system: UO-31
[57] = system: CCRF-CEM

COc1cc(/C=C2/C[C@H]3[C@@H]4CC=C5C[C@@H](O)CC[C@]5(C)[C@H]4CC[C@]3(C)NC2=O)cc(OC)c1OC
GI50 [1]: 20.7 µM (inactive) | GI50 [2]: 11.8 µM (inactive) | GI50 [3]: 18.9 µM (inactive) | GI50 [4]: 17.7 µM (inactive) | GI50 [5]: 13.3 µM (inactive) | GI50 [6]: 18.7 µM (inactive) | GI50 [7]: 30.7 µM (inactive) | GI50 [8]: 22 µM (inactive) | GI50 [9]: 28.7 µM (inactive) | GI50 [10]: 16.3 µM (inactive) | GI50 [11]: 2.28 µM (inactive) | GI50 [12]: 30.5 µM (inactive) | GI50 [13]: 22.1 µM (inactive) | GI50 [14]: 39.8 µM (inactive) | GI50 [15]: 19.6 µM (inactive) | GI50 [16]: 5.24 µM (inactive) | GI50 [17]: 31.6 µM (inactive) | GI50 [18]: 22.1 µM (inactive) | GI50 [19]: 18.9 µM (inactive) | GI50 [20]: 3.69 µM (inactive) | GI50 [21]: 7.36 µM (inactive) | GI50 [22]: 11.8 µM (inactive) | GI50 [23]: > 38.9 µM (inactive) | GI50 [24]: 27.5 µM (inactive) | GI50 [25]: 11.8 µM (inactive) | GI50 [26]: 20.1 µM (inactive) | GI50 [27]: 22.5 µM (inactive) | GI50 [28]: 23 µM (inactive) | GI50 [29]: 24 µM (inactive) | GI50 [30]: 15.8 µM (inactive) | GI50 [31]: 16.3 µM | GI50 [32]: 29.2 µM (inactive) | GI50 [33]: 15.1 µM (inactive) | GI50 [34]: 11.9 µM (inactive) | GI50 [35]: 0.405 µM (active) | GI50 [36]: > 73.8 µM (inactive) | GI50 [37]: 15.1 µM (inactive) | GI50 [38]: 5.33 µM (inactive) | GI50 [39]: 15.2 µM (inactive) | GI50 [40]: 23.6 µM (inactive) | GI50 [41]: 23.1 µM (inactive) | GI50 [42]: 24.2 µM (inactive) | GI50 [43]: 10.9 µM (inactive) | GI50 [44]: 30.9 µM (inactive) | GI50 [45]: 16 µM (inactive) | GI50 [46]: 29.6 µM (inactive) | GI50 [47]: 9.12 µM (inactive) | GI50 [48]: 21.6 µM (inactive) | GI50 [49]: 5.46 µM (inactive) | GI50 [50]: 15 µM (inactive) | GI50 [51]: 22 µM (inactive) | GI50 [52]: 6.7 µM (inactive) | GI50 [53]: 40.3 µM (inactive) | GI50 [54]: 20 µM (inactive) | GI50 [55]: 20.1 µM (inactive) | GI50 [56]: 9.68 µM (inactive) | GI50 [57]: 47.8 µM (inactive)
